The numbers were not newly measured in PMC3807243 (Biochemical pharmacology, 2012), which cites them from elsewhere.

The term IC50 denotes the concentration that inhibits the measured activity by half.

Like-named read-outs stand apart in the source and are kept apart here.

The series deals with EphB4. The following applies: ref [38]–[40].

For TNYLFSPNGPIA, for the setting “read-out: IC50 for inhibition of ephrin-B2 binding to EphB4”, the IC50 is roughly 150 µM.
In the case of TNYLFSPNGPIARAW [TNYL-RAW], the “Binding affinity for EphB4” value is reported as “low nanomolar”. For the same sequence, the IC50 (read-out: IC50 for inhibition of EphB4 binding) is roughly 0.015 µM.
